Test results published in paper PMC12477080, “Polychlorinated biphenyls (PCBs) interact with drug metabolism in vivo” (Archives of Toxicology, 2025).

What was measured:
CYP2D6 = assay: CYP phenotyping cocktail clinical study: metoprolol/α-OH-metoprolol metabolic ratio and its association with PCB plasma levels; conditions: linear regression of MR AUC0–8 h α-OH-metoprolol/metoprolol (CYP2D6 activity) on PCB plasma concentration
Method: (§1) The participants were ascertained not to have any acute disease by medical history, physical examination, laboratory screening, including hematological and biochemical blood tests, and a 12-lead electrocardiogram. […] The demographic data of the subjects are summarized in Table 1 in the supplemental data. At the enrollment visit, 2 blood samples (9 ml each) were collected into ethylenediaminetetraacetic acid (EDTA)-containing tubes taken from each subject for analyzing the plasma concentrations of PCB congeners and for pharmacogenetic analysis.
(§2) Participants stayed fasted from the evening before until 3 h after drug administration. After that, a meal was provided. Water and juice were permitted but alcoholic and caffeinated beverages were not allowed from the evening before drug administration until the last blood sample was taken on the next day. Venous blood samples (9 ml each) were collected through an intravenous catheter immediately before and 0.25, 0.5, 0.75, 1, 1.5, 2, 2.5, 3, 4, 5, 6, 7, 8, and 24 h after drug administration. Blood was drawn into EDTA-coated tubes, centrifuged at 1500 g for 10 min at 4 °C, and plasma samples were subsequently stored at − 80 °C until further analysis. After completely voiding the bladder immediately before drug administration, the participants collected urine from 0 to 24 h after drug administration. After weighing the collected urine, a 10 ml aliquot of each fraction was taken.
(§3) Commercially sourced standards and internal standards were used for quantification (see Supplemental Materials). In brief, 20 µl of the plasma samples were protein-precipitated with 80 µl methanol containing all internal standards or were treated for 16 h at 37 °C with 2 µl β-glucuronidase (1,000,000 Units) for deconjugation before protein precipitation with 78 µl methanol containing internal standards. Samples were centrifuged for 20 min, at 4 °C and 17,000 × g, and 40 µl of the supernatants were diluted with 40 µl LC–MS grade water, centrifuged again for 5 min at 4 °C and 17,000 × g and 50 µl supernatant were transferred to LC–MS vials 5 µl of the samples were injected into the LC–MS system.
An Agilent 1290 Infinity II UHPLC coupled with a SCIEX QTRAP6500 + triple quadrupole mass spectrometer was used. Chromatographic separation was achieved on an Agilent Poroshell 120 EC-C18 (1.9 µm, 2.1 × 50 mm) column with A: 0.1% formic acid in water and B: methanol with a flow rate of 0.7 ml/min and a total run time of 8.5 min. Analytes were eluted using a gradient program. The following gradient steps represent gradual changes in % B over time: 5% B from 0 to 0.2 min, 30% B at 2 min, 34% B at 4.8 min, 95% B at 6.5 min, 95% B at 7.5 min and re-equilibrating to 5% B at 7.7 min and 5%B till 8.5 min. A representative chromatogram is shown in supplemental Fig. 2. The scheduled MRM mode was applied for analyte detection in both positive and negative ESI modes (Supplementary Table 4). Calibration curves were constructed with linear regression using weighted (1/x^2) models (detailed information in supplemental methods).
(§4) Partial areas under the plasma concentration–time curves from 0 to 3 h (AUC0–3 h), from 0 to 4 h (AUC0–4 h), and from 0 to 8 h (AUC0–8 h) were calculated based on measured concentrations by the linear trapezoidal rule without extrapolation. […] Metabolic ratios (MR) were calculated by dividing the partial AUC of the metabolite by the respective partial AUC of the parent drug. The MRs were used as biomarkers for the individual CYP activities of the study subjects.

CYP1A2 = assay: CYP phenotyping cocktail clinical study: caffeine/paraxanthine metabolic ratio and its association with PCB plasma levels
Method: as §1, §2, §3
An Agilent 1290 Infinity II UHPLC coupled with a SCIEX QTRAP6500 + triple quadrupole mass spectrometer was used. […]
as §4, with “The MRs were used as biomarkers for the individual CYP activities of the study subjects.” left out

[1] = Determination of PCB concentrations in plasma of HELPcB and control participants; type: in vivo; conditions: human plasma
Method: The laboratory regularly participates in round robins for the determination of PCBs in plasma (www.g-equas.de).
Plasma concentrations of PCB congeners were quantified in blood samples from all participants using gas chromatography/mass spectrometry (GC–MS) (Fig. 2A and Supplementary Table 2). A total of 19 PCB congeners were measured in control (n = 10) and HELPcB (n = 10) participants, with PCBs detected in all individuals. […] In the control group, PCB plasma concentrations primarily reflected background environmental exposure, such as dietary intake, representing the general population’s burden.

[2] = target: T1, HEK293 cells overexpressing CYP1A2 (Homo sapiens, UniProt P05177); assay: CYP1A2 activity in transgenic HEK293 cells (phenacetin probe); type: cell-based; conditions: 0.1, 0.5, 1 µM PCB118, 30 min, then 10 µM phenacetin 1 h
T1 construct: expressed in transfected cells; host or cells: HEK293
T1 sequence (P05177 1-516): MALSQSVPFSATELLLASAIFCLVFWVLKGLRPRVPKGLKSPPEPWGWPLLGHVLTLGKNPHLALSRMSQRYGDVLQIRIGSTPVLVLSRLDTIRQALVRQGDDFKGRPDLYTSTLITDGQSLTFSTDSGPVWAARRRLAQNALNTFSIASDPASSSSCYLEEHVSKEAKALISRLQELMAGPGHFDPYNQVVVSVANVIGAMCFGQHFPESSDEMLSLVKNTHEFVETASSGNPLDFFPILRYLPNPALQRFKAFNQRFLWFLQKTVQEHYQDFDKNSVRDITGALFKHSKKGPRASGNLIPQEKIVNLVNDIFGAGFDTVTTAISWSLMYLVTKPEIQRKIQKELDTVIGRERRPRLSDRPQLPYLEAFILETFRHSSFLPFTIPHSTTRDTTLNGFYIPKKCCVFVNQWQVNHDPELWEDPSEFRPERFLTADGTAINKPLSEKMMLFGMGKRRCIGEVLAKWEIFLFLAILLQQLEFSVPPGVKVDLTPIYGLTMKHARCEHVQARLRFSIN

Clc1ccc(-c2cc(Cl)c(Cl)cc2Cl)cc1Cl [PCB118]
t value (CYP2D6): 2,169 | β (standardized regression coefficient) (CYP2D6): 0,455 | association with CYP1A2 activity in hierarchical generalized mixed model (CYP1A2; adjusted for co-factors (smoking status, gender, BMI, age)): became significant when smoking status was included as a co-factor | proportion of variability in CYP1A2 activity explained (CYP1A2; linear regression, MR paraxanthine/caffeine on PCB118 plasma concentration): ~ 15.5% | PCB plasma concentration, Mean [±SD] HELPcB ([1]; HELPcB (occupationally exposed) group): 0.122 ± 0.122 ng/mL | PCB plasma concentration, Geometric mean, HELPcB ([1]; HELPcB group, N 10): 0.075 ng/mL | PCB plasma concentration, Mean [±SD] all ([1]; all participants): 0.072 ± 0.099 ng/mL | PCB plasma concentration, Mean [±SD] control ([1]; control group (background exposure)): 0.022 ± 0.012 ng/mL | PCB plasma concentration, Geometric mean, Control ([1]; control group, N 10): 0.019 ng/mL | effect on CYP1A2 activity in HEK293 cells (phenacetin probe) [2]: significantly inhibited CYP1A2 activity in a dose-dependent manner
